In patent US12473296B2, “Perk inhibiting compounds” (HiberCell, Inc., priority 2019, dated 2025):

Experiments:
PERK = PERK (Homo sapiens (Human), UniProt Q9NZJ5); assay: PERK cellular assay (TR-FRET, HEK293-EGFP-eIF2α cells, tunicamycin-induced ER stress); format: cell-based; conditions: tunicamycin 2 hours, read-out: Cellular IC50 (μM) (EIF2a)
How it was run: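 After 2 h tunicamycin ([…]) stress following 30 min compound pretreatment at 37 °C, lysed HEK293-EGFP-eIF2α cells were read by TR-FRET. IC50 derived by 4-parameter logistic fitting of percent inhibition, DMSO-normalized, from 10-point 3-fold dilutions.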

[1] = target: EIF2AK3 (PERK) catalytic domain (amino acids 536-1116) (Homo sapiens (Human), UniProt Q9NZJ5); assay: PERK in vitro activity assay (isolated), TR-FRET kinase assay; conditions: isolated PERK enzyme, 1.5 μM ATP, GFP-eIF2a substrate; read-out: Biochemical IC50
Chain of EIF2AK3 (PERK) catalytic domain (amino acids 536-1116) (Q9NZJ5 536-1116): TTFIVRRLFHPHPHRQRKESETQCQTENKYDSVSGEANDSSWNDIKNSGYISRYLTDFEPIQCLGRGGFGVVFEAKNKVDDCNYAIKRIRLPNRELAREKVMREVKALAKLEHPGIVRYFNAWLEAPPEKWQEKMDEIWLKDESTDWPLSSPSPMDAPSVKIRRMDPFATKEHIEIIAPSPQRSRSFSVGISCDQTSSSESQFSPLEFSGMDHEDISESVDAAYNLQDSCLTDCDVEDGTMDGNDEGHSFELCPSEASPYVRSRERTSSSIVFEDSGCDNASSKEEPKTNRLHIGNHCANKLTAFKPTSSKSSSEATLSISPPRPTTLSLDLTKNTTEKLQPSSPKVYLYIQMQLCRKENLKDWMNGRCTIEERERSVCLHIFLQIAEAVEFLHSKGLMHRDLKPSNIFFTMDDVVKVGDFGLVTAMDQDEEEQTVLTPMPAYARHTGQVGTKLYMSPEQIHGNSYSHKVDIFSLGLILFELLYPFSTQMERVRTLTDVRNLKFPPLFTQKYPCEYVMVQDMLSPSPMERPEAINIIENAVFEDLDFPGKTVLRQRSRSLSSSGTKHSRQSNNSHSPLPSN
How it was run: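 Human PERK catalytic domain (aa 536-1116) with 100-200 nM GFP-eIF2a in 50 mM HEPES pH 7.5, 10 mM MgCl2, 1.0 mM EGTA, 0.01% Brij-35; enzyme-started reaction run 45 min at room temperature. Stopped with 10 mM EDTA, 2 nM Tb-anti-phospho-eIF2a added for 90 min; IC50 from TR-FRET ratio by 4-parameter logistic fit.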

Chain of PERK (Q9NZJ5 30-1116): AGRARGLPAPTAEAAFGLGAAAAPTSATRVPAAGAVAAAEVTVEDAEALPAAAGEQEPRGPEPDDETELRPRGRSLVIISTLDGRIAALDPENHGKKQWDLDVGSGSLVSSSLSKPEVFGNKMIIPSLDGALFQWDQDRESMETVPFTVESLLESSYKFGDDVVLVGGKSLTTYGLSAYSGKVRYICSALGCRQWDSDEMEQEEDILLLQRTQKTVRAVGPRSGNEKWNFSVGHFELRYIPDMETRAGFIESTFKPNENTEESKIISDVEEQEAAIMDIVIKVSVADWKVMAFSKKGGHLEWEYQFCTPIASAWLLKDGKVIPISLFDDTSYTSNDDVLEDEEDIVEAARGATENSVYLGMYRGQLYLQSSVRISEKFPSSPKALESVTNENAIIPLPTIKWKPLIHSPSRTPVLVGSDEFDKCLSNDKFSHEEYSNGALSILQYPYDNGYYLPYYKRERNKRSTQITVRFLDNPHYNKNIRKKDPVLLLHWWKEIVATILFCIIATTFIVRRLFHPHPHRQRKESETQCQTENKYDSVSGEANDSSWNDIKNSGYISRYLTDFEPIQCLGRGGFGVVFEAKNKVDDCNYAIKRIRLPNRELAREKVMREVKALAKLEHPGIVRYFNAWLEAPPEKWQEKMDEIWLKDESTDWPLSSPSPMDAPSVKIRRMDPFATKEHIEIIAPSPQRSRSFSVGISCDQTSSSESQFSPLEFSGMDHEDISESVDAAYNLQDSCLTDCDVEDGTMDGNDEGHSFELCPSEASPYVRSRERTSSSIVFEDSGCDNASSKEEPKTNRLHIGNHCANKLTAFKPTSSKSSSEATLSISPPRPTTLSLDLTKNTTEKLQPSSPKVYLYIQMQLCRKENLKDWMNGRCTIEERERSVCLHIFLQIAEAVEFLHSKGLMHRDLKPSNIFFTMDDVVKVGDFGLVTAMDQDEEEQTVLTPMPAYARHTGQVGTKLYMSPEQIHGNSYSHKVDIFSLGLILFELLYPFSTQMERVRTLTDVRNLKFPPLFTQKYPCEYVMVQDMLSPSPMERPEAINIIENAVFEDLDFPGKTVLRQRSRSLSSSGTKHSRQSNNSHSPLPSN

SMILES | IC50 (PERK) [µM] | IC50 [1] [µM]
Cc1cc(NC(=O)C(O)c2cc(F)cc(F)c2)ccc1-c1cnc(N)c(C(=O)NC2CN(C)C2)c1 (centres unmarked) [Example 47, 2-amino-5-(4-(2-(3,5-difluorophenyl)-2-hydroxyacetamido)-2-methylphenyl)-N-(1-methylazetidin-3-yl)nicotinamide] | 1 to 2 | 0.001 to 0.025
Cc1cc(NC(=O)C(O)c2cc(F)cc(F)c2)ccc1-c1cnc(N)c(C(=O)NCCO)c1 (centres unmarked) [Example 56, 2-amino-5-(4-(2-(3,5-difluorophenyl)-2-hydroxyacetamido)-2-methylphenyl)-N-(2-hydroxyethyl) nicotinamide] | 0.251 to 0.5 | 0.001 to 0.025
Cc1cc(NC(=O)C(O)c2cc(F)cc(F)c2)ccc1-c1cnc(N)c(C(=O)NCCO)c1 (centres unmarked) [Example 57, 2-amino-5-(4-(2-(3,5-difluorophenyl)-2-hydroxyacetamido)-2-methylphenyl)-N-(2-hydroxyethyl) nicotinamide] | 2 to 3 | 0.101 to 0.25
Cc1cccc(C(O)C(=O)Nc2ccc(-c3cnc(N)c(C(=O)NC(C)C)c3)c(C)c2)c1 (centres unmarked) [Example 66, 2-amino-5-(4-(2-hydroxy-2-(m-tolyl)acetamido)-2-methylphenyl)-N-isopropylnicotinamide] | 1 to 2 | 0.101 to 0.25
Cc1cccc(C(O)C(=O)Nc2ccc(-c3cnc(N)c(C(=O)NC(C)C)c3)c(C)c2)c1 (centres unmarked) [Example 67, 2-amino-5-(4-(2-hydroxy-2-(m-tolyl)acetamido)-2-methylphenyl)-N-isopropylnicotinamide] | 0.051 to 0.1 | 0.001 to 0.025
Cc1cc(NC(=O)C(O)c2cccc(Cl)c2)ccc1-c1cnc(N)c(C(=O)NC(C)C)c1 (centres unmarked) [Example 68, 2-amino-5-(4-(2-(3-chlorophenyl)-2-hydroxyacetamido)-2-methylphenyl)-N-isopropylnicotinamide] | 0.501 to 1 | 0.101 to 0.25
Cc1cc(NC(=O)C(O)c2cccc(Cl)c2)ccc1-c1cnc(N)c(C(=O)NC(C)C)c1 (centres unmarked) [Example 69, 2-amino-5-(4-(2-(3-chlorophenyl)-2-hydroxyacetamido)-2-methylphenyl)-N-isopropylnicotinamide] | 0.026 to 0.05 | 0.001 to 0.025
Cc1cc(NC(=O)C(O)c2cccc3c2OCC3)ccc1-c1cnc(N)c(C(=O)NC(C)C)c1 (centres unmarked) [Example 74, 2-amino-5-(4-(2-(2,3-dihydrobenzofuran-7-yl)-2-hydroxyacetamido)-2-methylphenyl)-N-isopropylnicotinamide] | 1 to 2 | 0.251 to 0.5
Cc1cc(NC(=O)C(O)c2cccc3c2OCC3)ccc1-c1cnc(N)c(C(=O)NC(C)C)c1 (centres unmarked) [Example 75, 2-amino-5-(4-(2-(2,3-dihydrobenzofuran-7-yl)-2-hydroxyacetamido)-2-methylphenyl)-N-isopropylnicotinamide] | 1 to 2 | 0.101 to 0.25
Cc1cc(NC(=O)C(O)c2cccc3cnn(C)c23)ccc1-c1cnc(N)c(C(=O)NC(C)C)c1 (centres unmarked) [Example 76, 2-amino-5-(4-(2-hydroxy-2-(1-methyl-1H-indazol-7-yl)acetamido)-2-methylphenyl)-N-isopropylnicotinamide] | 3 to 4 | 0.251 to 0.5
Cc1cc(NC(=O)C(O)c2cccc3cnn(C)c23)ccc1-c1cnc(N)c(C(=O)NC(C)C)c1 (centres unmarked) [Example 77, 2-amino-5-(4-(2-hydroxy-2-(1-methyl-1H-indazol-7-yl)acetamido)-2-methylphenyl)-N-isopropylnicotinamide] | 3 to 4 | 0.501 to 1
Cc1nc(C(O)C(=O)Nc2ccc(-c3cnc(N)c(C(=O)NC(C)C)c3)c(C)c2)cs1 (centres unmarked) [Example 78, 2-amino-5-(4-(2-hydroxy-2-(2-methylthiazol-4-yl)acetamido)-2-methylphenyl)-N-isopropylnicotinamide] | > 5 | 1 to 2
Cc1nc(C(O)C(=O)Nc2ccc(-c3cnc(N)c(C(=O)NC(C)C)c3)c(C)c2)cs1 (centres unmarked) [Example 79, 2-amino-5-(4-(2-hydroxy-2-(2-methylthiazol-4-yl)acetamido)-2-methylphenyl)-N-isopropylnicotinamide] | > 5 | 1 to 2
CC(C)NC(=O)c1cc(-c2ccc(NC(=O)C(O)c3cc(F)cc(F)c3)cc2)cnc1N (centres unmarked) [Example 80, 2-amino-5-(4-(2-(3,5-difluorophenyl)-2-hydroxyacetamido)phenyl)-N-isopropylnicotinamide] | 0.251 to 0.5 | 0.001 to 0.025
CC(C)NC(=O)c1cc(-c2ccc(NC(=O)C(O)c3cc(F)cc(F)c3)cc2)cnc1N (centres unmarked) [Example 81, 2-amino-5-(4-(2-(3,5-difluorophenyl)-2-hydroxyacetamido)phenyl)-N-isopropylnicotinamide] | 4 to 5 | 0.101 to 0.25
CCNC(=O)c1cc(-c2ccc(NC(=O)C(O)c3cc(F)cc(F)c3)cc2Cl)cnc1N (centres unmarked) [Example 82, 2-amino-5-(2-chloro-4-(2-(3,5-difluorophenyl)-2-hydroxyacetamido)phenyl)-N-ethylnicotinamide] | 0.026 to 0.05 | 0.001 to 0.025

SMILES | IC50 (PERK) [µM] | IC50 [1] [µM]
CCNC(=O)c1cc(-c2ccc(NC(=O)C(O)c3cc(F)cc(F)c3)cc2Cl)cnc1N (centres unmarked) [Example 83, 2-amino-5-(2-chloro-4-(2-(3,5-difluorophenyl)-2-hydroxyacetamido)phenyl)-N-ethylnicotinamide] | 0.251 to 0.5 | 0.001 to 0.025
Nc1ncc(-c2ccc(NC(=O)C(O)c3cc(F)cc(F)c3)cc2Cl)cc1C(=O)NC1CC1 (centres unmarked) [Example 84, 2-amino-5-(2-chloro-4-(2-(3,5-difluorophenyl)-2-hydroxyacetamido)phenyl)-N-cyclopropyl-nicotinamide] | 0.001 to 0.025 | 0.001 to 0.025
Nc1ncc(-c2ccc(NC(=O)C(O)c3cc(F)cc(F)c3)cc2Cl)cc1C(=O)NC1CC1 (centres unmarked) [Example 85, 2-amino-5-(2-chloro-4-(2-(3,5-difluorophenyl)-2-hydroxyacetamido)phenyl)-N-cyclo-propylnicotinamide] | 0.051 to 0.1 | 0.001 to 0.025
Nc1ncc(-c2ccc(NC(=O)C(O)c3cc(F)cc(F)c3)cc2Cl)cc1C(=O)NCC(F)(F)F (centres unmarked) [Example 86, 2-amino-5-(2-chloro-4-(2-(3,5-difluorophenyl)-2-hydroxyacetamido)phenyl)-N-(2,2,2-trifluoroethyl) nicotinamide] | 0.001 to 0.025 | 0.001 to 0.025
Nc1ncc(-c2ccc(NC(=O)C(O)c3cc(F)cc(F)c3)cc2Cl)cc1C(=O)NCC(F)(F)F (centres unmarked) [Example 87, 2-amino-5-(2-chloro-4-(2-(3,5-difluorophenyl)-2-hydroxyacetamido)phenyl)-N-(2,2,2-trifluoroethyl) nicotinamide] | 0.101 to 0.25 | 0.026 to 0.05
CCc1cccc(C(O)C(=O)Nc2ccc(-c3cnc(N)c(C(=O)NC(C)C)c3)c(Cl)c2)c1 (centres unmarked) [Example 94, 2-amino-5-(2-chloro-4-(2-(3-ethylphenyl)-2-hydroxyacetamido)phenyl)-N-isopropylnicotinamide] | 0.001 to 0.025 | 0.001 to 0.025
CCc1cccc(C(O)C(=O)Nc2ccc(-c3cnc(N)c(C(=O)NC(C)C)c3)c(Cl)c2)c1 (centres unmarked) [Example 95, 2-amino-5-(2-chloro-4-(2-(3-ethylphenyl)-2-hydroxyacetamido)phenyl)-N-isopropylnicotinamide] | 0.101 to 0.25 | 0.026 to 0.05
CCNC(=O)c1cc(-c2ccc(NC(=O)C(O)c3cc(F)cc(F)c3)cc2CC)cnc1N (centres unmarked) [Example 98, 2-amino-5-(4-(2-(3,5-difluorophenyl)-2-hydroxyacetamido)-2-ethylphenyl)-N-ethylnicotinamide] | 0.001 to 0.025 | 0.001 to 0.025
CCNC(=O)c1cc(-c2ccc(NC(=O)C(O)c3cc(F)cc(F)c3)cc2CC)cnc1N (centres unmarked) [Example 99, 2-amino-5-(4-(2-(3,5-difluorophenyl)-2-hydroxyacetamido)-2-ethylphenyl)-N-ethylnicotinamide] | 0.101 to 0.25 | 0.026 to 0.05
CCc1cc(NC(=O)C(O)c2cc(F)cc(F)c2)ccc1-c1cnc(N)c(C(=O)NCC(F)(F)F)c1 (centres unmarked) [Example 100, 2-amino-5-(4-(2-(3,5-difluorophenyl)-2-hydroxyacetamido)-2-ethylphenyl)-N-(2,2,2-trifluoroethyl) nicotinamide] | 0.001 to 0.025 | 0.001 to 0.025
CCc1cc(NC(=O)C(O)c2cc(F)cc(F)c2)ccc1-c1cnc(N)c(C(=O)NCC(F)(F)F)c1 (centres unmarked) [Example 101, 2-amino-5-(4-(2-(3,5-difluorophenyl)-2-hydroxyacetamido)-2-ethylphenyl)-N-(2,2,2-trifluoroethyl) nicotinamide] | 0.051 to 0.1 | 0.001 to 0.025
CCc1cc(NC(=O)C(O)c2cc(F)cc(F)c2)ccc1-c1cnc(N)c(C(=O)NC2CC2)c1 (centres unmarked) [Example 102, 2-amino-N-cyclopropyl-5-(4-(2-(3,5-difluorophenyl)-2-hydroxyacetamido)-2-ethylphenyl) nicotinamide] | 0.001 to 0.025 | 0.001 to 0.025
CCc1cc(NC(=O)C(O)c2cc(F)cc(F)c2)ccc1-c1cnc(N)c(C(=O)NC2CC2)c1 (centres unmarked) [Example 103, 2-amino-N-cyclopropyl-5-(4-(2-(3,5-difluorophenyl)-2-hydroxyacetamido)-2-ethylphenyl) nicotinamide] | 0.101 to 0.25 | 0.026 to 0.05
CCc1cccc(C(O)C(=O)Nc2ccc(-c3cnc(N)c(C(=O)NC(C)C)c3)c(CC)c2)c1 (centres unmarked) [Example 106, 2-amino-5-(2-ethyl-4-(2-(3-ethylphenyl)-2-hydroxyacetamido)phenyl)-N-isopropylnicotinamide] | 0.001 to 0.025 | 0.001 to 0.025
CCc1cccc(C(O)C(=O)Nc2ccc(-c3cnc(N)c(C(=O)NC(C)C)c3)c(CC)c2)c1 (centres unmarked) [Example 107, 2-amino-5-(2-ethyl-4-(2-(3-ethylphenyl)-2-hydroxyacetamido)phenyl)-N-isopropylnicotinamide] | 0.251 to 0.5 | 0.051 to 0.1
